Assay: UV absorption (absorbance coefficient)
Type: physicochemical
Details: 314 nm
Description: Uvinul® T150 is notable for good UV absorption properties and an extremely high absorbance coefficient of >1500 and 314 nm.

absorbance coefficient: > 1500
Structure (SMILES): CCCCC(CC)COC(=O)c1ccc(Nc2nc(Nc3ccc(C(=O)OCC(CC)CCCC)cc3)nc(Nc3ccc(C(=O)OCC(CC)CCCC)cc3)n2)cc1 (stereo not shown) [Uvinul® T150, 2,4,6-trianilino-p-(carbo-2′-ethylhexyl-1′-oxy)-1,3,5-triazine]

Reference: patent US6531117B2, “Aqueous dispersion of water-insoluble organic UV filter substances” (BASF Aktiengesellschaft, priority 2000, dated 2003)
